Laboratory results from ChEMBL document CHEMBL1201862, “PubChem BioAssay data set” (2004).
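Values below derive from 48-hour exposures of cells grown in 96-well plates, with endpoints linearly interpolated between the two concentrations bracketing the appropriate inhibition level. GI50: concentration for 50% inhibition of growth.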 Activity calls are given as the source filed them. No stated cut-off is given here; in the data, active = GI50 up to about 1.1 µM and inactive = higher.

Tests used:
Assay in all cases: NCI tumour cell line growth inhibition, 48 h
HCC 2998 = tested on: HCC 2998
XF498 = tested on: XF498
SF-295 = tested on: SF-295
M14 = tested on: M14
UO-31 = tested on: UO-31
OVCAR-8 = tested on: OVCAR-8
HL-60 = tested on: HL-60
OVCAR-5 = tested on: OVCAR-5
IGROV-1 = tested on: IGROV-1
SW-620 = tested on: SW-620
NCI-H23 = tested on: NCI-H23
HCT-15 = tested on: HCT-15
MOLT-4 = tested on: MOLT-4
RPMI-8226 = tested on: RPMI-8226
EKVX = tested on: EKVX
SF-539 = tested on: SF-539
NCI-H460 = tested on: NCI-H460
TK-10 = tested on: TK-10
SK-MEL-5 = tested on: SK-MEL-5
A498 = tested on: A498
NCI-H226 = tested on: NCI-H226
786-0 = tested on: 786-0
SNB-19 = tested on: SNB-19
SK-OV-3 = tested on: SK-OV-3
DLD-1 = tested on: DLD-1
COLO 205 = tested on: COLO 205
Malme-3M = tested on: Malme-3M
KM12 = tested on: KM12
U-251 = tested on: U-251
UACC-62 = tested on: UACC-62
LXFL 529 = tested on: LXFL 529
DMS-273 = tested on: DMS-273
M19-MEL = tested on: M19-MEL
SN12C = tested on: SN12C
HCT-116 = tested on: HCT-116
NCI-H522 = tested on: NCI-H522
A549 = tested on: A549
DMS-114 = tested on: DMS-114
K562 = tested on: K562
ACHN = tested on: ACHN
CAKI-1 = tested on: CAKI-1
HT-29 = tested on: HT-29
SK-MEL-2 = tested on: SK-MEL-2
UACC-257 = tested on: UACC-257
SK-MEL-28 = tested on: SK-MEL-28
LOX IMVI = tested on: LOX IMVI
HOP-92 = tested on: HOP-92
SNB-75 = tested on: SNB-75
HOP-62 = tested on: HOP-62
OVCAR-4 = tested on: OVCAR-4
RXF 631 = tested on: RXF 631
SF-268 = tested on: SF-268
KM-20L2 = tested on: KM-20L2
OVCAR-3 = tested on: OVCAR-3
CCRF-CEM = tested on: CCRF-CEM

SMILES: Cc1cccc(NC(=O)/C=C/c2ccc(N(CCC#N)CCC#N)cc2C)c1
- GI50 (HCC 2998): > 100 µM (inactive)
- GI50 (XF498): > 100 µM (inactive)
- GI50 (SF-295): > 100 µM (inactive)
- GI50 (M14): > 100 µM (inactive)
- GI50 (UO-31): 24.5 µM (inactive)
- GI50 (OVCAR-8): > 100 µM (inactive)
- GI50 (HL-60): 21.5 µM (inactive)
- GI50 (OVCAR-5): > 100 µM (inactive)
- GI50 (IGROV-1): > 100 µM (inactive)
- GI50 (SW-620): > 100 µM (inactive)
- GI50 (NCI-H23): > 100 µM (inactive)
- GI50 (HCT-15): 29 µM
- GI50 (MOLT-4): > 100 µM (inactive)
- GI50 (RPMI-8226): > 100 µM (inactive)
- GI50 (EKVX): > 100 µM (inactive)
- GI50 (SF-539): > 100 µM (inactive)
- GI50 (NCI-H460): > 100 µM (inactive)
- GI50 (TK-10): > 100 µM (inactive)
- GI50 (SK-MEL-5): > 100 µM (inactive)
- GI50 (A498): > 100 µM (inactive)
- GI50 (NCI-H226): > 100 µM (inactive)
- GI50 (786-0): > 100 µM (inactive)
- GI50 (SNB-19): > 100 µM (inactive)
- GI50 (SK-OV-3): > 100 µM (inactive)
- GI50 (DLD-1): > 100 µM (inactive)
- GI50 (COLO 205): > 100 µM (inactive)
- GI50 (Malme-3M): > 100 µM (inactive)
- GI50 (KM12): > 100 µM (inactive)
- GI50 (U-251): > 100 µM (inactive)
- GI50 (UACC-62): 28 µM (inactive)
- GI50 (LXFL 529): 23.4 µM (inactive)
- GI50 (DMS-273): > 100 µM (inactive)
- GI50 (M19-MEL): > 100 µM (inactive)
- GI50 (SN12C): > 100 µM (inactive)
- GI50 (HCT-116): > 100 µM (inactive)
- GI50 (NCI-H522): > 100 µM (inactive)
- GI50 (A549): > 100 µM (inactive)
- GI50 (DMS-114): 49.9 µM (inactive)
- GI50 (K562): 16.8 µM (inactive)
- GI50 (ACHN): 70.3 µM (inactive)
- GI50 (CAKI-1): > 100 µM (inactive)
- GI50 (HT-29): > 100 µM (inactive)
- GI50 (SK-MEL-2): > 100 µM (inactive)
- GI50 (UACC-257): > 100 µM (inactive)
- GI50 (SK-MEL-28): > 100 µM (inactive)
- GI50 (LOX IMVI): 43.7 µM (inactive)
- GI50 (HOP-92): > 100 µM (inactive)
- GI50 (SNB-75): 54.5 µM (inactive)
- GI50 (HOP-62): > 100 µM (inactive)
- GI50 (OVCAR-4): > 100 µM (inactive)
- GI50 (RXF 631): > 100 µM (inactive)
- GI50 (SF-268): 81.5 µM (inactive)
- GI50 (KM-20L2): > 100 µM (inactive)
- GI50 (OVCAR-3): > 100 µM (inactive)
- GI50 (CCRF-CEM): 33 µM (inactive)
